What was measured:
Thromboxane A2 receptor = biological target: T1, Thromboxane A2 receptor (Rattus norvegicus, UniProt P34978); assay: Compound was tested for TXA2 receptor antagonism by measuring its ability to inhibit contraction of rat aorta induced by the stable TXA2 agonist U-46,619 at 1 umol; type: functional, tissue-based; conditions: read-out: pA2 (converted)
T1 sequence (P34978 whole entry): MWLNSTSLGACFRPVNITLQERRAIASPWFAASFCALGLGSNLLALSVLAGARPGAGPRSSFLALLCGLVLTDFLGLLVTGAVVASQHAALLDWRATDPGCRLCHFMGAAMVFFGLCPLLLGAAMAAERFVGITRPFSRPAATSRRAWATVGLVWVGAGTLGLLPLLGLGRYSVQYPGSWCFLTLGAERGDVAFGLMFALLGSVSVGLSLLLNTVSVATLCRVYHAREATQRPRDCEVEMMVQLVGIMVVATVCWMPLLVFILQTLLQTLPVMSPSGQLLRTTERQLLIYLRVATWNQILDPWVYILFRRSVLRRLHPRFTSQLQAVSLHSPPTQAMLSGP

Thromboxane-A synthase = biological target: T2, Thromboxane-A synthase (Homo sapiens, UniProt P24557); assay: Inhibitory activity against human platelet microsomal TXA2 synthase
T2 sequence (P24557 whole entry): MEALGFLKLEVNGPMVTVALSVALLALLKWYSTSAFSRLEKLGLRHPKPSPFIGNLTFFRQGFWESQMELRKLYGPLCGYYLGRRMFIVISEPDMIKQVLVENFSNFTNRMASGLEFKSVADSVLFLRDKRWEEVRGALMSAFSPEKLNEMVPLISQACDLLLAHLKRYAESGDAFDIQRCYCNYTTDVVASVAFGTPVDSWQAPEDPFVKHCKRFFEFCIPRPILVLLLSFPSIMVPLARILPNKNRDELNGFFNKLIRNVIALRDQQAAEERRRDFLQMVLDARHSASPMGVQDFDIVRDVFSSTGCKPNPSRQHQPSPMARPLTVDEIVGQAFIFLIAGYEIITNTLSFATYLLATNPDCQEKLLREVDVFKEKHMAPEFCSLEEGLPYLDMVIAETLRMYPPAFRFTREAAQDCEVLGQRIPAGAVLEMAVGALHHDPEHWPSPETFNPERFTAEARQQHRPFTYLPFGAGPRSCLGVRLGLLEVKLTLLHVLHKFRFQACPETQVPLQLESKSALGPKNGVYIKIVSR

SMILES	Kb (Thromboxane A2 receptor) [nM]	IC50 (Thromboxane-A synthase) [nM]
O=C(O)CCn1cc(Cn2ccnc2)c2cc(NS(=O)(=O)c3ccc(F)cc3)ccc21	6.31	34
O=C(O)CCn1ccc2cc(NS(=O)(=O)c3ccc(F)cc3)ccc21	3.72	
COc1ccc(S(=O)(=O)Nc2ccc3c(c2)c(Cc2ccc(F)cc2)cn3CCC(=O)O)cc1	0.174	
O=C(O)CCn1cc(Cc2ccc(F)cc2)c2cc(NS(=O)(=O)c3ccc(Cl)cc3)ccc21	0.234	
O=C(O)CCn1cc(Cc2ccc(F)cc2)c2cc(NS(=O)(=O)c3ccccc3)ccc21	0.676	
O=C(O)CCCc1ccc(NS(=O)(=O)c2ccc(Cl)cc2)cc1	100	
Cc1c(Cn2ccnc2)c2cc(NS(=O)(=O)c3ccc(F)cc3)ccc2n1CCC(=O)O	3800	19
Cc1ccc(S(=O)(=O)Nc2ccc3c(c2)c(Cc2ccc(F)cc2)cn3CCC(=O)O)cc1	0.269	
O=C(O)CCn1ccc2cc(NS(=O)(=O)c3ccc(Cl)cc3)ccc21	2.75	
O=C(O)CCn1cc(Cc2cccnc2)c2cc(NS(=O)(=O)c3ccc(F)cc3)ccc21	1.41	48
O=C(O)CCn1cc(Cc2ccc(F)cc2)c2cc(NS(=O)(=O)c3ccc(F)cc3)ccc21	0.479	
Cc1c(Cn2ccnc2)c2ccccc2n1CCC(=O)O [DAZMEGREL]	> 1000	
